What was measured:
RXF 393 = assay: Antitumor activity against human RXF393 cells; assay type: functional
HCT-15 = assay: Antitumor activity against human HCT15 cells; assay type: functional
RPMI-8226 = assay: Antitumor activity against human RPMI8226 cells; assay type: functional
OVCAR-3 = assay: Antitumor activity against human OVCAR-3 cells; assay type: functional
NCI-H522 = assay: Antitumor activity against human NCI-H522 cells; assay type: functional
HT-29 = assay: Antitumor activity against human HT29 cells; assay type: functional
COLO 205 = assay: Antitumor activity against human COLO205 cells; assay type: functional
SNB-19 = assay: Antitumor activity against human SNB19 cells; assay type: functional
NCI/ADR-RES = assay: Antitumor activity against human NCI/ADR-RES cells; assay type: functional
SK-MEL-28 = assay: Antitumor activity against human SK-MEL-28 cells; assay type: functional
U-251 = assay: Antitumor activity against human U251 cells; assay type: functional
SR [1] = assay: Antitumor activity against human SR cells; assay type: functional
786-0 = assay: Antitumor activity against human 786-0 cells; assay type: functional
NCI-H23 = assay: Antitumor activity against human NCI-H23 cells; assay type: functional
HCC 2998 = assay: Antitumor activity against human HCC2998 cells; assay type: functional
MOLT-4 = assay: Antitumor activity against human MOLT4 cells; assay type: functional
ACHN = assay: Antitumor activity against human ACHN cells; assay type: functional
[2] = Antitumor activity against human NCI-H322 cells; assay type: functional
UACC-257 = assay: Antitumor activity against human UACC257 cells; assay type: functional
SF-268 = assay: Antitumor activity against human SF268 cells; assay type: functional
CCRF-CEM [3] = assay: Growth inhibition of huam CCRF-CEM at 1 uM; assay type: functional; settings: Homo sapiens
SF-295 = assay: Antitumor activity against human SF295 cells; assay type: functional
NCI-H226 = assay: Antitumor activity against human NCI-H226 cells; assay type: functional
SR [4] = assay: Growth inhibition of human SR cells at 1 uM; assay type: functional
A549 = assay: Antitumor activity against human A549 cells; assay type: functional
[5] = Antitumor activity against human HS 578T cells; assay type: functional
MDA-MB-435 = assay: Antitumor activity against human MDA-MB-435 cells; assay type: functional
OVCAR-4 = assay: Antitumor activity against human OVCAR4 cells; assay type: functional
CAKI-1 = assay: Antitumor activity against human CAKI-1 cells; assay type: functional
UACC-62 = assay: Antitumor activity against human UACC62 cells; assay type: functional
NCI-H460 = assay: Antitumor activity against human NCI-H460 cells; assay type: functional
SK-MEL-5 = assay: Antitumor activity against human SK-MEL-5 cells; assay type: functional
SW-620 = assay: Antitumor activity against human SW620 cells; assay type: functional
KM12 = assay: Antitumor activity against human KM12 cells; assay type: functional
OVCAR-5 = assay: Antitumor activity against human OVCAR5 cells; assay type: functional
UO-31 = assay: Antitumor activity against human UO31 cells; assay type: functional
OVCAR-8 = assay: Antitumor activity against human OVCAR8 cells; assay type: functional
K562 = assay: Antitumor activity against human K562 cells; assay type: functional
SN12C = assay: Antitumor activity against human SN12C cells; assay type: functional
Malme-3M = assay: Antitumor activity against human MALME-3M cells; assay type: functional
[6] = Antitumor activity against human HL60 (TB) cells; assay type: functional, HL-60(TB); settings: HL-60
EKVX = assay: Antitumor activity against human EKVX cells; assay type: functional
HCT-116 = assay: Antitumor activity against human HCT116 cells; assay type: functional
HOP-62 = assay: Antitumor activity against human HOP62 cells; assay type: functional
PC-3 = assay: Antitumor activity against human PC3 cells; assay type: functional
SNB-75 = assay: Antitumor activity against human SNB75 cells; assay type: functional
[7] = Growth inhibition of human HS 578T cells at 10 nM; assay type: functional
TK-10 = assay: Antitumor activity against human TK10 cells; assay type: functional
LOX IMVI = assay: Antitumor activity against human LOX IMVI cells; assay type: functional
[8] = Antitumor activity against human […] cells; assay type: functional
CCRF-CEM [9] = assay: Antitumor activity against human CCRF-CEM cells; assay type: functional
HOP-92 = assay: Antitumor activity against human HOP92 cells; assay type: functional
SF-539 = assay: Antitumor activity against human SF539 cells; assay type: functional
MCF7 = assay: Antitumor activity against human MCF7 cells; assay type: functional
DU-145 = assay: Antitumor activity against human DU145 cells; assay type: functional
BT-549 = assay: Antitumor activity against human BT549 cells; assay type: functional
A498 = assay: Antitumor activity against human A498 cells; assay type: functional
SK-OV-3 = assay: Antitumor activity against human SK-OV-3 cells; assay type: functional

OC[C@H]1C[C@](O)(c2ccc(Cl)cc2)[C@@H](c2ccc(Cl)cc2)O1 (relative stereo)
GI50 (RXF 393): 20.9 µM | GI50 (HCT-15): 31.6 µM | GI50 (RPMI-8226): 13.8 µM | GI50 (OVCAR-3): 26.3 µM | GI50 (NCI-H522): 26.3 µM | GI50 (HT-29): 24 µM | GI50 (COLO 205): 25.7 µM | GI50 (SNB-19): 38 µM | GI50 (NCI/ADR-RES): 30.2 µM | GI50 (SK-MEL-28): 28.8 µM | GI50 (U-251): 24.5 µM | GI50 (SR [1]): 20.4 µM | GI50 (786-0): 22.4 µM | GI50 (NCI-H23): 24.5 µM | GI50 (HCC 2998): 24 µM | GI50 (MOLT-4): 17.8 µM | GI50 (ACHN): 28.2 µM | GI50 [2]: 35.5 µM | GI50 (UACC-257): 21.4 µM | GI50 (SF-268): 26.9 µM | inhibition at 1 µM (CCRF-CEM [3]): 71% | GI50 (SF-295): 30.2 µM | GI50 (NCI-H226): 26.3 µM | inhibition at 1 µM (SR [4]): 87% | GI50 (A549): 29.5 µM | GI50 [5]: 18.2 µM | GI50 (MDA-MB-435): 22.9 µM | GI50 (OVCAR-4): 32.4 µM | GI50 (CAKI-1): 26.9 µM | GI50 (UACC-62): 15.8 µM | GI50 (NCI-H460): 20 µM | GI50 (SK-MEL-5): 15.1 µM | GI50 (SW-620): 27.5 µM | GI50 (KM12): 20.4 µM | GI50 (OVCAR-5): 25.7 µM | GI50 (UO-31): 19.5 µM | GI50 (OVCAR-8): 30.9 µM | GI50 (K562): 25.1 µM | GI50 (SN12C): 17 µM | GI50 (Malme-3M): 21.4 µM | GI50 [6]: 17.4 µM | GI50 (EKVX): 18.2 µM | GI50 (HCT-116): 17.4 µM | GI50 (HOP-62): 20.9 µM | GI50 (PC-3): 20 µM | GI50 (SNB-75): 22.9 µM | inhibition at 0.01 µM [7]: 21% | GI50 (TK-10): 30.2 µM | GI50 (LOX IMVI): 17.8 µM | GI50 [8]: 19.5 µM | GI50 (CCRF-CEM [9]): 0.468 µM | GI50 (HOP-92): 17 µM | GI50 (SF-539): 23.4 µM | GI50 (MCF7): 30.2 µM | GI50 (DU-145): 21.9 µM | GI50 (BT-549): 16.6 µM | GI50 (A498): 24.5 µM | GI50 (SK-OV-3): 39.8 µM

Reference: ChEMBL document CHEMBL1143055, “2,3,5-Substituted tetrahydrofurans as cancer chemopreventives. Part 1: synthesis and anti-cancer activities of 5-hydroxymethyl-2,3-diaryl-tetrahydro-furan-3-ols” (2007)
